Laboratory results from PMC6270917, “Study on the Mechanism of Intestinal Absorption of Epimedins A, B and C in the Caco-2 Cell Model” (Molecules, 2014).
Read-outs that look alike come from different tables or passages of the source.

Experiments:
[1] = system: multidrug resistance proteins (MRPs); experiment: Caco-2 transport in the presence of MK571 (MRP inhibitor); format: in vitro ADME, human; conditions: 20 μM epimedin, 50 μM MK571
Description: (§1) Meanwhile, verapamil was dissolved in water to 2 mM as well as MK571 and dipyridamole were dissolved in dimethyl sulfoxide (DMSO)-ethanol (v/v = 1/1) to prepare the stock solution (10 mM) when they were used. In addition, testosterone (internal standard) was dissolved in acetonitrile with acetic acid (v/v = 94/6) to 100 µM.
(§2) The transport experiments were performed as described previously. Firstly, the cell monolayers were rinsed thrice with 37 °C HBSS (pH 7.4), and the monolayers were incubated with the buffer for 1 h, then the incubation medium was aspirated. Afterwards, transport from the apical side (AP) to basolateral side (BL): 2.9 mL drug solution were added to the AP side (which was regarded as donor side) and 2.5mL HBSS were added to the BL side (which was regarded as receiver side). Transport from the basolateral side to apical side: 2.9 mL drug solution were added to the BL (donor) side and 2.5 mL HBSS were added to the AP (receiver) side. When the transport inhibitors were used, they were loaded only at the donor side. In the test for each solution, four donor samples (400 μL) and four receiver samples (400 μL) were taken at time intervals of 2, 3, 4, and 5 h after incubation, followed by an immediate replacement with fresh donor solution (400 μL) to the donor side or fresh buffer (400 μL) to the receiver side.
(§3) To each transport sample (400 µL), acetonitrile (100 µL) containing 100 µM of testosterone was added as an internal standard and preservation. The resulting mixture was vortexed for 30 sec and then centrifuged at 15,000 rpm for 15min. The supernatant obtained was determined by ultra-performance liquid chromatography (UPLC) within 24 h. At the end of the transport experiment, the TEER value was remeasured to confirm the integrity of the cell monolayer.
(§4) UPLC was used to determine the concentration of the compounds in the transport samples obtained from the Caco-2 model. The conditions for UPLC analysis of epimedin A, epimedin B, and epimedin C in the presence of inhibitors (verapamil or MK571) were as follows: system, Waters Acquity^TM UPLC with photodiode array detector and Empower software; column, Acquity UPLC BEH C18, 1.7 μm, 2.1 × 50 mm (Waters, Milford, MA, USA); mobile phase A, acetonitrile; mobile phase B, water; gradient, 0 to 0.5 min, 25% A, 0.5 to 1.0 min, 25% to 60% A, 1.0 to 2.5 min, 60% to 80% A, 2.5 to 3 min, 80% to 25% A; flow rate, 0.4 mL/min; wavelength, 270 nm (epimedin A, epimedin B and epimedin C), 283nm (MK571), 278 nm (verapamil) and 245 nm (testosterone); column temperature, 30 °C; and injection volume, 5 μL.
(§5) In the Caco-2 cell model, rate of transport is obtained from amount transported versus time curve using linear regression. […] The rate of drug transport was calculated by linear regression analysis using Microsoft Excel software (Microsoft Corporation, Redmond, WA, USA ). All data were presented as means ± SD. Statistical comparisons were evaluated by ANOVA test using the SPSS 16 software. Results were considered significant at p < 0.05.

P-glycoprotein (P-gp) = target: T1, P-glycoprotein (P-gp) (Homo sapiens, UniProt P08183); experiment: Caco-2 transport in the presence of verapamil (P-gp inhibitor); format: in vitro ADME; conditions: 20 μM epimedin; for efflux ratio at 5 h, 20 µM: human
T1 construct: endogenous in cells; host or cells: Caco-2 TC7 cell monolayers
Description: as §1, §2, §3, §4, §5

[2] = Bidirectional transport (A-B and B-A) across Caco-2 cell monolayers; format: in vitro ADME; conditions: human; for efflux ratio at 5 h / efflux ratio at 5 h, 20 µM: Caco-2, pH 7.4; for efflux ratio at 5 h / Papp A→B at 5 h / Papp B→A at 5 h: concentrations of 5–40 μM; for efflux ratio at 5 h: read-out: efflux ratio (PBA/PAB); for Papp A→B at 5 h / Papp B→A at 5 h: Caco-2, HBSS pH 7.4; for Papp A→B at 5 h: A-B direction, read-out: absorptive permeability (PAB); for Papp B→A at 5 h: B-A direction, read-out: secretory permeability (PBA); for efflux ratio at 5 h, 20 µM: 20 μM epimedin, no inhibitor, read-out: efflux ratio (PBA/PAB), control without inhibitor
Description: The Caco-2 TC7 cell line (at passage 30) is generally similar to the wild-type Caco-2 cell line. […] The conditions for Caco-2 cell culture have been described previously. Cells were cultured in a humidified atmosphere of 5% CO2 and 95% air at 37 °C. The culture medium (Dulbecco’s modified Eagle’s medium ) was supplemented with 10% (v/v) fetal bovine serum, 1% nonessential amino acids, 100 U/mL penicillin, and 100 µg/mL streptomycin. When the cell culture reached 80% confluence, it was rinsed with phosphate-buffered saline and split using trypsin. For transport experiments, the cells were seeded on 3 μm porous polycarbonate cell culture Transwell® inserts from Nunc, which has a surface area of 4.2 cm^2 at a density of 100,000 cells/cm^2. The culture media was replaced every other day. The monolayers were ready for experiments from 19 to 21 days after seeding. Transepithelial electrical resistance (TEER) was used to monitor the integrity and tight junction of the Caco-2 cell monolayer.
Epimedin A, epimedin B, and epimedin C were dissolved in dimethyl sulfoxide (DMSO)-ethanol (v/v = 6/4) to prepare the stock solution (8 mM) for each single compound. The above-mentioned solutions were further diluted with HBSS solution (pH = 7.4) to obtain a series of working standard solutions, and the final concentrations of epimedin A, epimedin B, and epimedin C in the transport samples were 5 µM, 10 µM, 20 µM and 40 µM, respectively. Moreover, the final concentrations of the organic solvent of different samples were controlled below 0.5% to ensure the safety to the cells.
as §2, §3
as §4, with “μL. […]” for “μL.”

Caco-2 cells = experiment: MTT cell viability assay; format: cell-based, human; conditions: for reduction of cell viability rate of Caco-2 cells: 80 μM (highest concentration), 36 h, vs control; for cytotoxicity to the growth of Caco-2 cells: 10-80 μM
Description: Cell viability was measured using the 3-(4, 5-dimethylthiazol-2-yl)-2,5-diphenyltetrazolium bromide (MTT) assay. The Caco-2 cells were seeded in 96-well plates at a density of 2 × 10^3 cells/well in DMEM culture medium and cultured at 37 °C for 24 h. After that, the culture medium was replaced with fresh medium containing epimedins A, B, and C at concentrations ranging from 10 μM to 80 μM. Control groups consist of cells in medium (without epimedins A, B, and C) which are processed identically and incubated simultaneously as treated groups. And then the 96-well plates were incubated for 36 h. Subsequently, 10 μL of 5 mg/mL MTT was added to each well and the plates were incubated for another 4 h. The solutions in each well were then removed followed by dissolving the remained formazan crystals in the cells with 100 μL DMSO. The absorbance was measured at 550 nm using a microplate reader (Thermo Labsystems, Helsinki, Finland). The cell viability of each compound was calculated as the percentage of the absorbance relative to that of negative control.

[3] = target: T2, breast cancer resistance protein (BCRP) (Homo sapiens, UniProt Q9UNQ0); experiment: Caco-2 transport in the presence of dipyridamole (BCRP inhibitor); format: in vitro ADME; conditions: 20 μM epimedin
T2 construct: endogenous in cells; host or cells: Caco-2 TC7 cell monolayers
T2 sequence (Q9UNQ0 1-655): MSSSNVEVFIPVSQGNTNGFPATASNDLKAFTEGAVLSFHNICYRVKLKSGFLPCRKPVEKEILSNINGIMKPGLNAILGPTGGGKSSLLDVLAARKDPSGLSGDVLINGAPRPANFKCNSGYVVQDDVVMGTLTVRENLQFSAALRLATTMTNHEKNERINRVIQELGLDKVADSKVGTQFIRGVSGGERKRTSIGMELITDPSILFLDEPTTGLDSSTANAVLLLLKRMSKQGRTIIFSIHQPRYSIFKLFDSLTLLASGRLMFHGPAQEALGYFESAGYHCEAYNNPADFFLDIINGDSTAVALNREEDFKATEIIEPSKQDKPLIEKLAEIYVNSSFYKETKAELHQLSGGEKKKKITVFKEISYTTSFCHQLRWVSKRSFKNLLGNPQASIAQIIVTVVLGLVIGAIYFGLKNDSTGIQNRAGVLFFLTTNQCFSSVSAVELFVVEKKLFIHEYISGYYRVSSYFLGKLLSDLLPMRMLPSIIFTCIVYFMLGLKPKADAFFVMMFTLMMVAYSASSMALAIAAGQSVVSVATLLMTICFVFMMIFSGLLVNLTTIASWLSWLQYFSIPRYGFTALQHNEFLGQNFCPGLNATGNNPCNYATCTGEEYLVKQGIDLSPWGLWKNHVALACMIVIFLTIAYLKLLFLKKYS
Description: as §1, §2, §3
While analysis the samples in the presence of another inhibitor (dipyridamole), the conditions were as follows: system and column were the same as before; mobile phase A, 90% acetonitrile, 10%water; mobile phase B, 10% acetonitrile, 90% water containing 0.015% (v/v) formic acid and 0.02% (v/v) triethylamine (pH 3.0); gradient, 0–0.3 min, 95% B, 0.3–2.9 min, 95%–65% B, 3.8 min, 0% B, 3.8–4.5 min, 0%–95% B; flow rate, 0.4 mL/min; wavelength, 270 nm (epimedin A, epimedin B and epimedin C), 285 nm (dipyridamole) and 245 nm (testosterone,); column temperature, 30 °C; and injection volume, 5 μL.
as §5

Caco-2 cell monolayers = system: Caco-2 cell monolayers; parameters: method as in PMID 11145220; conditions: cited from earlier work

T1 sequence (P08183 whole entry): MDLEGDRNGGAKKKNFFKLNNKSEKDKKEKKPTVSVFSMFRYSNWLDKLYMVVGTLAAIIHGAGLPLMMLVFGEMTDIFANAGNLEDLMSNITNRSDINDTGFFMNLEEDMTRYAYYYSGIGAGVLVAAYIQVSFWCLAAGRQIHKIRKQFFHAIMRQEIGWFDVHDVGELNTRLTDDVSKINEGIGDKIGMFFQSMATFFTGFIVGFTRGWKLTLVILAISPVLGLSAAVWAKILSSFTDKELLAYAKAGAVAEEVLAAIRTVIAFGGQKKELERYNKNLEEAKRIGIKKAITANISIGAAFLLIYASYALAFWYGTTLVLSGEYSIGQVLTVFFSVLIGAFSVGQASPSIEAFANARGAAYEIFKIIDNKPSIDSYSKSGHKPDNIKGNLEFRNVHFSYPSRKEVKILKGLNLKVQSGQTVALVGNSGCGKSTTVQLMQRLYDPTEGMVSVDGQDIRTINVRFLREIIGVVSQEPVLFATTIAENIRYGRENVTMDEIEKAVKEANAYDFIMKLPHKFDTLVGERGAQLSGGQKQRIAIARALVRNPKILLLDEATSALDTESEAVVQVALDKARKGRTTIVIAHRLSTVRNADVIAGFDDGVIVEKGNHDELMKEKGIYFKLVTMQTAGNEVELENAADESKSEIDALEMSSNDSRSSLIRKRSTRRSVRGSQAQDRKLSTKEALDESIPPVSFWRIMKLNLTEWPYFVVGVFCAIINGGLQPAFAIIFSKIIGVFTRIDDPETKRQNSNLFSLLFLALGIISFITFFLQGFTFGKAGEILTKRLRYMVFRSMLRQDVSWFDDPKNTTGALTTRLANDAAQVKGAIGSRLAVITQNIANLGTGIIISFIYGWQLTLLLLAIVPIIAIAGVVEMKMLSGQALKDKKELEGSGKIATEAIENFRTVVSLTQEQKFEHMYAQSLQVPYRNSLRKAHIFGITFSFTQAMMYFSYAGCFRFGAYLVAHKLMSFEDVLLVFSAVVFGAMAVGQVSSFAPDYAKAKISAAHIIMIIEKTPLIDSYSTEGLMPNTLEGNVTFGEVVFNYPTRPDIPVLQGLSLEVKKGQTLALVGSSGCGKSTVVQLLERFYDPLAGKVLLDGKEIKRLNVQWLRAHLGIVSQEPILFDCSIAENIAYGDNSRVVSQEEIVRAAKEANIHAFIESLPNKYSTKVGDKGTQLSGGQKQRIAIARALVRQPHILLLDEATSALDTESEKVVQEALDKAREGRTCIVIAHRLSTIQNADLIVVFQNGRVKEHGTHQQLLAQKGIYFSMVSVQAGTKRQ

Row | effect on PAB and PBA (transport) [1] | reduction of PBA (P-glycoprotein (P-gp); 50 μM verapamil) | efflux ratio at 5 h [2] | Papp A→B at 5 h [2] | Papp B→A at 5 h [2] | reduction of PBA ([3]; 50 μM dipyridamole) | reduction of efflux ratio [1] | efflux ratio at 5 h, 20 µM [2] | reduction of efflux ratio ([3]; 50 μM dipyridamole) | Structure (SMILES) | reduction of cell viability rate of Caco-2 cells (Caco-2 cells) | cytotoxicity to the growth of Caco-2 cells (Caco-2 cells) | permeability of poorly absorbed compound (Caco-2 cell monolayers) | also measured
1 | did not significantly influence | 17% | > 2 | 0.42 to 0.72 ×10⁻⁶ cm/s | 1.2 to 2.28 ×10⁻⁶ cm/s | 27% | – | – | – | COc1ccc(-c2oc3c(CC=C(C)C)c(O[C@@H]4O[C@H](CO)[C@@H](O)[C@H](O)[C@H]4O)cc(O)c3c(=O)c2O[C@@H]2O[C@@H](C)[C@H](O)[C@@H](O)[C@H]2O[C@@H]2O[C@@H](C)[C@H](O)[C@@H](O)[C@H]2O)cc1 [epimedin C] | 7% | nontoxic | – | increase in absorptive permeability (PAB) (P-glycoprotein (P-gp); 50 μM verapamil): 109%; efflux ratio at 5 h, 20 µM (P-glycoprotein (P-gp); Caco-2, pH 7.4, with verapamil (concentration not stated for this group), verapamil, read-out: reduction of efflux ratio): ~2.5; increase in absorptive permeability (PAB) ([3]; 50 μM dipyridamole): 43%; fold reduction of efflux ratio at 5 h, 20 µM ([3]; human, Caco-2, pH 7.4, with dipyridamole (concentration not stated for this group), dipyridamole): ~1.95
2 | – | – | – | – | – | – | – | – | – | O=C(O)c1cc(/N=N/c2ccc(S(=O)(=O)Nc3ccccn3)cc2)ccc1O [sulfasalazine] | – | – | 0.34 × 10^−6 | –
3 | – | – | – | – | – | – | – | – | – | OC[C@@H](O)[C@@H](O)[C@H](O)[C@H](O)CO [mannitol] | – | – | 1.7e-06 cm/s | –
4 | increased | – | > 2 | 0.39 to 0.73 ×10⁻⁶ cm/s | 1.19 to 1.76 ×10⁻⁶ cm/s | – | 32% | 1.98 | 50% | COc1ccc(-c2oc3c(CC=C(C)C)c(O[C@@H]4O[C@H](CO)[C@@H](O)[C@H](O)[C@H]4O)cc(O)c3c(=O)c2O[C@@H]2O[C@@H](C)[C@H](O)[C@@H](O)[C@H]2O[C@@H]2OC[C@@H](O)[C@H](O)[C@H]2O)cc1 [epimedin B] | 7% | nontoxic | – | effect on PAB and PBA (P-glycoprotein (P-gp); verapamil): increased; reduction of efflux ratio (P-glycoprotein (P-gp); verapamil): 31%; effect on absorptive permeability ([3]; 50 μM dipyridamole): increased significantly; effect on secretory permeability ([3]; 50 μM dipyridamole): significantly decreased; efflux ratio at 5 h, 20 µM ([3]; human, Caco-2, pH 7.4, with dipyridamole 50 µM, 50 μM dipyridamole): 1.02
5 | did not alter | 22% | > 2 | 0.42 to 0.72 ×10⁻⁶ cm/s | 1.29 to 1.89 ×10⁻⁶ cm/s | 38% | 13% | 2.04 | 47% | COc1ccc(-c2oc3c(CC=C(C)C)c(OC4O[C@H](CO)[C@@H](O)[C@H](O)[C@H]4O)cc(O)c3c(=O)c2OC2O[C@@H](C)[C@H](O)[C@@H](O)[C@H]2O[C@@H]2O[C@H](CO)[C@@H](O)[C@H](O)[C@H]2O)cc1 (stereo partly drawn) [epimedin A] | 7% | nontoxic | – | PAB relative to control group (P-glycoprotein (P-gp); 50 μM verapamil): 1.5 fold; efflux ratio at 5 h, 20 µM (P-glycoprotein (P-gp); Caco-2, pH 7.4, with verapamil 50 µM, 50 μM verapamil, read-out: efflux ratio in the presence of verapamil): 1.03; increase of PAB ([3]; 50 μM dipyridamole): 1.2 fold
